Results as given in US20070066512A1, “Methods and compositions using immunomodulatory compounds for the treatment of disorders associated with low plasma leptin levels” (priority 2005, published 2007).

Columns and labels:
[1] = system: adipocytes differentiated from Human Mesenchymal Stem Cell (MSC); test: Triglyceride accumulation in MSC-derived adipocytes (microscopy, Oil Red O staining); type: cell-based; conditions: for triglyceride accumulation quantified by Oil Red O staining (FIG. 2B): cells cultured with compound vs DMSO
Method: (§1) Human Mesenchymal Stem Cell (MSC) and adipocyte differentiation media were obtained from Cambrex (Walkersville, Md.). MSCs were seeded in 24 well plates at 40,000 cells per well in MSC Basic Medium (MSCBM), supplemented with 10% serum and expanded for 7 days. At 100% of confluence, three cycles of induction/maintenance stimulated adipogetic differentiation. Each cycle consisted feeding MSCs with Adipogenic Induction Medium (AIM) for 3 days, followed by 1 day of culture in Adipogenic Maintenance Medium (AMM). AIM and AMM contained 10% serum, Pen-Sterep and L-Glu, supplemented with insulin, dexamethasone, indomethacin and IBMX, or insulin only. After 3 complete cycles of induction/maintenance, MSCs are cultured for 3 more days in AMM and analyzed.
(§2) To study the effects of immunomodulatory compounds on adipocyte differentiation, MSCs were differentiated in the presence of DMSO or varying concentrations of an immunomodulatory compound. DMSO and immunomodulatory compounds were added to the medium during the differentiation and maintenance steps. Phenotypic characterization of the cells for adipocyte markers, such as triglyceride content and adipokine secretion, was performed.
Fat content in adipocyte was quantified by Oil Red O staining. Cells were washed with PBS and fixed with 3.7% formaldehyde for 15 minutes. Lipid vacuoles were stained with 0.5% Oil Red O in 60% isopropanol for 30 minutes at 37° C. Cells were then washed three times with water and Oil Red O content was dissolved into 100% propanol. The optical density of the solution was measured at 510 nm.

[2] = system: leptin secretion in adipocytes; test: Leptin secretion of adipocytes (quantikine human leptin immunoassay); type: cell-based; conditions: for concentration giving maximum of dose dependent leptin secretion response: adipocytes differentiated in presence of compound; for dexamethasone induced leptin secretion (FIG. 3C): dexamethasone added to the cells for 15 hours at the end of differentiation
Method: as §1, §2
(§3) Leptin and adiponectin were measured using the quantikine human leptin and human adiponectin immunoassay kits (R&D Systems, Minneapolis, Minn.). To measure leptin secretion, 100 μl of medium was collected from the cell plates, diluted 2 or 5 times depending on the collecting time during the differentiation process, and analyzed following the manufacturer's protocols. Results were corrected for the dilution factor. For adiponectin secretion, 50 μl of medium was collected and directly analyzed.

[3] = system: adiponectin secretion in adipocytes; test: Adiponectin secretion of adipocytes (quantikine human adiponectin immunoassay); type: cell-based; conditions: adipocytes differentiated in presence of compound
Method: as §1
To study the effects of immunomodulatory compounds on adipocyte differentiation, MSCs were differentiated in the presence of DMSO or varying concentrations of an immunomodulatory compound. […]
as §3, with “Results were corrected for the dilution factor.” left out

[4] = system: leptin mRNA; test: Northern blot of leptin mRNA in MSC-derived adipocytes; type: cell-based, Human; conditions: adipocytes treated with compound vs DMSO; GAPDH control unchanged
Method: as §1, §2
(§4) RNAs from MSC-derived adipocytes were isolated with RNeasy lipid tissue kit (Qiagen, Valencia, Calif.). […]

[5] = system: adiponectin mRNA; test: Northern blot of adiponectin mRNA in MSC-derived adipocytes; type: cell-based, Human; conditions: adipocytes treated with compound vs DMSO; GAPDH control unchanged
Method: as §1, §2, §4

[6] = system: MSCs; test: MSC viability (XTT assay); type: cell-based, Human; conditions: MSCs treated for 2 days vs DMSO
Method: (§5) MSC viability was assayed using cell proliferation kit II (XTT) (Roche, Indianapolis, Ind.). MSC proliferation was assayed using 5-bromo-2′-deoxy-uridine labeling and detection kit III (BrdU) (Roche, Indianapolis, Ind.). MSCs have been seeded in 96 well plates and expanded for 2 days in presence of DMSO or varying concentrations of an immunomodulatory compound. XTT and BrdU were added to the cells for 20 hours. The viability and proliferation of MSCs were assayed following manufacturer's instructions.

[7] = system: MSCs; test: MSC proliferation (BrdU incorporation assay); type: cell-based, Human; conditions: MSCs treated for 2 days vs DMSO
Method: as §5

[8] = cited from earlier work; for hygroscopicity of polymorphic form: crystalline form of 3-(4-amino-1-oxo-1,3 dihydro-isoindol-2-yl)-piperidene-2,6-dione; for interconversion of polymorphic form: aqueous solvent systems or higher relative humidities

Structure (SMILES) | triglyceride accumulation quantified by Oil Red O staining (FIG. 2B) [1] | concentration giving maximum of dose dependent leptin secretion response [2] [µM] | dexamethasone induced leptin secretion (FIG. 3C) [2] | adiponectin secretion vs cells differentiated in DMSO (FIG. 4) [3] | level of leptin mRNAs (northern blot, FIG. 5) [4] | level of adiponectin mRNAs (northern blot, FIG. 5) [5] | cell viability (XTT, FIG. 6) [6] | cell proliferation (BrdU incorporation, FIG. 6) [7] | hygroscopicity of polymorphic form [8] | interconversion of polymorphic form [8] | further results
Nc1cccc2c1C(=O)N(C1CCC(=O)NC1=O)C2=O (centres unmarked) [1,3-dioxo-(2,6-dioxopiperidin-3-yl)-4-aminoisoindoline] | no significant difference | 10 | enhanced dexamethasone induced leptin secretion | lower levels of adiponectin secretion | dose-dependently increase | dose-dependent decrease | neither 1-oxo-(2,6-dioxopiperidin-3-yl)-4-aminoisoindoline nor 1,3-dioxo-(2,6-dioxopiperidin-3-yl)-4-aminoisoindoline caused significant change | neither 1-oxo-(2,6-dioxopiperidin-3-yl)-4-aminoisoindoline nor 1,3-dioxo-(2,6-dioxopiperidin-3-yl)-4-aminoisoindoline caused significant change | – | – | leptin secretion vs cells differentiated in DMSO (FIG. 3B) ([2]; adipocytes differentiated in presence of 0. 1, 1, 2.5, or 10 μM): a similar result was observed
Nc1cccc2c1CN(C1CCC(=O)NC1=O)C2=O (centres unmarked) [1-oxo-(2,6-dioxopiperidin-3-yl)-4-aminoisoindoline] | no significant difference | 25 | enhanced dexamethasone induced leptin secretion | lower levels of adiponectin secretion | dose-dependently increase | dose-dependent decrease | neither 1-oxo-(2,6-dioxopiperidin-3-yl)-4-aminoisoindoline nor 1,3-dioxo-(2,6-dioxopiperidin-3-yl)-4-aminoisoindoline caused significant change | neither 1-oxo-(2,6-dioxopiperidin-3-yl)-4-aminoisoindoline nor 1,3-dioxo-(2,6-dioxopiperidin-3-yl)-4-aminoisoindoline caused significant change | – | – | ability of the cells to accumulate triglyceride (microscopy, FIG. 2A) ([1]; cells differentiated with compound vs DMSO, lipid vacuoles observed): does not alter the ability of the cells to accumulate triglyceride; leptin secretion vs cells differentiated in DMSO (FIG. 3A) ([2]; adipocytes differentiated in presence of 2.5, 10, 25, or 50 μM): secreted higher levels of leptin
Nc1cccc2c1CN(C1CCC(=O)NC1=O)C2=O (centres unmarked) [Form A, 3-(4-amino-1-oxo-1,3 dihydro-isoindol-2-yl)-piperidene-2,6-dione] | – | – | – | – | – | – | – | – | weakly or not hygroscopic | – | relative stability of polymorphic form ([8]; Form A: among anhydrous polymorphs, Form E: in aqueous solvent systems): most thermodynamically stable anhydrous polymorph
Nc1cccc2c1CN(C1CCC(=O)NC1=O)C2=O (centres unmarked) [Form B, 3-(4-amino-1-oxo-1,3 dihydro-isoindol-2-yl)-piperidene-2,6-dione] | – | – | – | – | – | – | – | – | – | converts to Form E in aqueous solvent systems | –
Nc1cccc2c1CN(C1CCC(=O)NC1=O)C2=O (centres unmarked) [Form C, 3-(4-amino-1-oxo-1,3 dihydro-isoindol-2-yl)-piperidene-2,6-dione] | – | – | – | – | – | – | – | – | not hygroscopic below about 85% RH | can convert to Form B at higher relative humidities | –
Nc1cccc2c1CN(C1CCC(=O)NC1=O)C2=O (centres unmarked) [Form D, 3-(4-amino-1-oxo-1,3 dihydro-isoindol-2-yl)-piperidene-2,6-dione] | – | – | – | – | – | – | – | – | either weakly or not hygroscopic | will typically convert to Form B when stressed at higher relative humidities | –
